From paper PMC8120183, “Cardamonin inhibits the progression of oesophageal cancer by inhibiting the PI3K/AKT signalling pathway” (Journal of Cancer, 2021)

Tests used:
[1] = system: EC9706 cells; test: MTT assay, cell viability and IC50; format: cell-based, human
Description: (§1) EC9706 and TE10 oesophageal cancer cells in the logarithmic growth phase were harvested and inoculated into 96-well plates at a density of 3000 cells/well. The cells were cultured in an incubator for 12 h and then treated with different concentrations of CAR and DMSO. The NC group was also set up. After incubation for 24 h or 48 h, 10 µL of MTT solution (5 mg/ml) was added to each well. The supernatant was aspirated, and 100 µL of DMSO was added to each well. The absorbance at a wavelength of 490 nm was measured using a microplate reader.

[2] = system: TE10 cells; test: MTT assay, cell viability and IC50; format: cell-based, human
Description: as §1

[3] = system: oesophageal cancer cell lines EC9706 and TE10; test: Crystal violet staining, cell proliferation; format: cell-based, human; conditions: 4, 6, 8, 10 µM; 24 h and 48 h; similar in MTT assay
Description: Oesophageal cancer cells at a density of 3×10^4 cells/well were seeded in 24-well plates. Then, the cells were treated with different concentrations of prepared CAR or DMSO, and the NC group was set up. After incubation in an incubator for 24 h and 48 h, crystal violet staining solution was added to each well. After imaging under a scanner, the cells were fully dissolved in 20% acetic acid solution. To calculate cell viability, the optical density (OD) value of each well was measured at 590 nm using an enzyme-linked immunosorbent assay (ELISA) spectrophotometer.

[4] = system: PCNA in EC9706 cells; test: Western blot, proliferation marker; format: cell-based, human; conditions: 48 h
Description: (§2) Oesophageal cancer cells were inoculated into a 6-well plate (5×10^5 cells/well). Cells were treated with different concentrations of CAR and then incubated for an additional 48 h. The cells were lysed using radio-immunoprecipitation assay (RIPA) buffer. The protein concentration was determined using a BCA kit. Proteins were separated by 8-12% sodium dodecyl sulfate-polyacrylamide gel electrophoresis (SDS-PAGE) and then transferred to a polyvinylidene fluoride (PVDF) membrane. The membrane was blocked with 5% nonfat milk for 1 h and then incubated with primary antibodies at 4 °C overnight. The membrane was then incubated with secondary antibodies for 1 h at room temperature. Finally, the membrane was imaged using a chemiluminescence imaging analyser. The greyscale value of each target protein band was analysed using the software provided with the analyser.

[5] = system: E-cadherin, N-cadherin, vimentin, Snail, MMP2, MMP7, MMP9 in EC9706 cells; test: Western blot, EMT-related marker proteins and MMPs; format: cell-based, human
Description: as §2

[6] = system: EC9706 and TE10 oesophageal cancer cells; test: Hoechst 33258 staining, apoptosis; format: cell-based, human; conditions: 48 h, compared with control group
Description: Cells were seeded into 24-well plates (3×10^4 cells/well). The cells were treated with different concentrations of CAR and then incubated for 48 h, followed by fixation with 4% paraformaldehyde for 30 min and one wash with PBS. The cells were stained with Hoechst 33258 (50 ng/ml) for 30 min. Apoptotic cells were observed using a fluorescence microscope (apoptotic cells were characterized by dense chromatin), and five randomly selected fields were used for cell counting.

[7] = system: EC9706 and TE10 oesophageal cancer cells; test: Wound healing assay; format: cell-based, human; conditions: within 24 h
Description: Oesophageal cancer cells were seeded into 6-well plates (5×10^5 cells/well) and then linearly scratched with a 10-μL pipette tip. After treatment for 24 h with different concentrations of CAR, cell migration was observed using an inverted microscope.

[8] = system: PCNA, p-PI3K, p-AKT, Bcl2, vimentin; test: Immunohistochemistry of xenograft tumour tissue; format: in vivo, nude mice; conditions: with increasing CAR concentrations
Description: A suspension of EC9706 cells (2×10^7 cells/ml) was injected into the middle of and posterior to the armpit of 4- to 6-week-old male nude mice. One week after inoculation, a soybean-sized subcutaneous mass appeared in the armpits of the mice. Then, different doses of CAR (5, 15, or 25 mg/kg) or sodium carboxymethyl cellulose (CMC), which served as a control, were administered by gavage once every three days. The body weights of the mice and tumour size were measured at the same time. Mice were euthanized 26 days after drug administration. Immunohistochemistry (IHC) was used to stain the tumours, and stomach tissue was stained with haematoxylin-eosin (HE). Tumour tissues were fixed with 4% paraformaldehyde and embedded in paraffin. Paraffin-embedded tissue blocks were cut into slices with a thickness of 3-5 mm. Tumour sections were immunohistochemically stained with PCNA (1:100), Bcl-2 (1:100), vimentin (1:100), phosphorylated Akt (1:100), and phosphorylated PI3K (1:100) antibodies according to the steps of the immunohistochemistry kit. For HE staining, tissues were sectioned after deparaffinization, stained with haematoxylin and eosin, and mounted on slides with neutral gum.

[9] = HE staining of important organs; format: in vivo, nude mice; conditions: treatment group vs control group
Description: (§3) A suspension of EC9706 cells (2×10^7 cells/ml) was injected into the middle of and posterior to the armpit of 4- to 6-week-old male nude mice. One week after inoculation, a soybean-sized subcutaneous mass appeared in the armpits of the mice. Then, different doses of CAR (5, 15, or 25 mg/kg) or sodium carboxymethyl cellulose (CMC), which served as a control, were administered by gavage once every three days. The body weights of the mice and tumour size were measured at the same time. Mice were euthanized 26 days after drug administration. Immunohistochemistry (IHC) was used to stain the tumours, and stomach tissue was stained with haematoxylin-eosin (HE).
Tumour tissues were fixed with 4% paraformaldehyde and embedded in paraffin. Paraffin-embedded tissue blocks were cut into slices with a thickness of […]. Tumour sections were immunohistochemically stained with PCNA (1:100), Bcl-2 (1:100), vimentin (1:100), phosphorylated Akt (1:100), and phosphorylated PI3K (1:100) antibodies according to the steps of the immunohistochemistry kit. For HE staining, tissues were sectioned after deparaffinization, stained with haematoxylin and eosin, and mounted on slides with neutral gum.

[10] = Blood routine related indexes; format: in vivo, nude mice; conditions: Mean±SD (n=3)
Description: as §3

[11] = Serum ALT, AST and CR levels; format: in vivo, nude mice; conditions: mean±SD (n=3)
Description: as §3

[12] = 5 mg/kg by gavage once every three days
[13] = 15 mg/kg by gavage once every three days
[14] = 25 mg/kg by gavage once every three days

Q: For `COc1cc(O)cc(O)c1C(=O)/C=C/c1ccccc1` [CAR, Cardamonin], which IC50 ([1]; 24 h) is on record?
A: The IC50 was 12.2 µM.

Q: What about the IC50 ([1]; 48 h) of the same compound?
A: Its IC50 is 8.67 µM.

Q: What about the IC50 ([2]; 24 h) of the same compound?
A: The IC50 was 12.5 µM.

Q: And the IC50 ([2]; 48 h)?
A: The IC50 was 8.4 µM.

Q: And the cell proliferation [3]?
A: The cell proliferation was “inhibited oesophageal cancer cell proliferation in time- and concentration-dependent manners”.

Q: What about the PCNA expression [4] of the same compound?
A: The PCNA expression was “significantly inhibited PCNA expression”.

Q: And the E-cadherin expression [5]?
A: The E-cadherin expression was “upregulated the expression of E-cadherin”.

Q: And the “MMP2, MMP7 and MMP9 expression” value [5]?
A: The value was “significantly reduced the expression of MMP2, MMP7, and MMP9”.

Q: And the “N-cadherin, vimentin and Snail expression” value [5]?
A: Its value is “significantly downregulated the expression of N-cadherin and vimentin as well as the EMT transcription factor Snail”.

Q: And the “number of apoptotic cells” value [6]?
A: Its value is “gradually increased with increasing drug concentrations”.

Q: What about the healing rate [7] of the same compound?
A: Its healing rate is “gradually decreased with increases in the CAR concentration”.

Q: And the “expression of PCNA, p-PI3K, p-AKT, Bcl2 and vimentin in tumour” value [8]?
A: The value was “the expression levels of PCNA, p-PI3K, p-AKT, Bcl2, and vimentin were downregulated”.

Q: What about the “HE staining of important organs” value [9] of the same compound?
A: The value was “no difference in HE staining was observed between the treatment group and the control group”.

Q: And the Gran [10, 12]?
A: Its Gran is 25.43±2.58%.

Q: What about the HCT [10, 12] of the same compound?
A: Its HCT is 39.87±7.80%.

Q: And the HGB [10, 12]?
A: Its HGB is 131.33 ± 6.51 g/L.

Q: And the LYM [10, 12]?
A: Its LYM is 70.80±4.07%.

Q: And the MCH [10, 12]?
A: Its MCH is 20.07 ± 0.93 pg.

Q: And the MCHC [10, 12]?
A: The MCHC was 348.00 ± 12.77 g/L.

Q: What about the MCV [10, 12] of the same compound?
A: The MCV was 57.63 ± 1.50 fL.

Q: What about the Mon [10, 12] of the same compound?
A: The Mon was 3.77±1.95%.

Q: And the PLT [10, 12]?
A: The PLT was 1009±44.24 ×10^9/L.

Q: What about the RBC [10, 12] of the same compound?
A: The RBC was 6.91±1.49 ×10^12/L.

Q: And the WBC [10, 12]?
A: The WBC was 3.90±0.17 ×10^9/L.

Q: What about the Gran [10, 13] of the same compound?
A: The Gran was 24.53±2.28%.

Q: What about the HCT [10, 13] of the same compound?
A: Its HCT is 35.77±1.86%.

Q: What about the HGB [10, 13] of the same compound?
A: The HGB was 137.00 ± 19.00 g/L.

Q: What about the LYM [10, 13] of the same compound?
A: The LYM was 72.30±3.15%.

Q: And the MCH [10, 13]?
A: Its MCH is 19.40 ± 2.07 pg.

Q: What about the MCHC [10, 13] of the same compound?
A: Its MCHC is 332.33 ± 19.09 g/L.

Q: And the MCV [10, 13]?
A: Its MCV is 58.33 ± 2.78 fL.

Q: And the Mon [10, 13]?
A: Its Mon is 3.17±1.01%.

Q: What about the PLT [10, 13] of the same compound?
A: Its PLT is 1074.00±42.80 ×10^9/L.

Q: What about the RBC [10, 13] of the same compound?
A: Its RBC is 6.13±0.08 ×10^12/L.

Q: What about the WBC [10, 13] of the same compound?
A: The WBC was 3.82±0.07 ×10^9/L.

Q: And the Gran [10, 14]?
A: Its Gran is 23.53±2.25%.

Q: What about the HCT [10, 14] of the same compound?
A: Its HCT is 34.30±2.17%.

Q: What about the HGB [10, 14] of the same compound?
A: The HGB was 142.33 ± 5.69 g/L.

Q: And the LYM [10, 14]?
A: The LYM was 74.13±1.53%.

Q: What about the MCH [10, 14] of the same compound?
A: Its MCH is 17.93 ± 0.49 pg.

Q: What about the MCHC [10, 14] of the same compound?
A: Its MCHC is 336.00 ± 7.00 g/L.

Q: And the MCV [10, 14]?
A: The MCV was 56.03 ± 1.56 fL.

Q: And the Mon [10, 14]?
A: The Mon was 3.20±0.87%.

Q: And the PLT [10, 14]?
A: The PLT was 1077.00±42.58 ×10^9/L.

Q: What about the RBC [10, 14] of the same compound?
A: The RBC was 6.42±0.19 ×10^12/L.

Q: What about the WBC [10, 14] of the same compound?
A: The WBC was 3.80±0.14 ×10^9/L.

Q: And the ALT [11, 12]?
A: Its ALT is 25.97±1.19 U/L.

Q: And the AST [11, 12]?
A: Its AST is 57.56±2.19 U/L.

Q: And the CR [11, 12]?
A: The CR was 51.41 ± 4.33 µmol/L.

Q: What about the ALT [11, 13] of the same compound?
A: The ALT was 23.50±2.88 U/L.

Q: And the AST [11, 13]?
A: Its AST is 55.38±3.26 U/L.

Q: What about the CR [11, 13] of the same compound?
A: The CR was 49.61 ± 6.54 µmol/L.

Q: And the ALT [11, 14]?
A: Its ALT is 21.04±2.52 U/L.

Q: What about the AST [11, 14] of the same compound?
A: The AST was 57.20±4.16 U/L.

Q: What about the CR [11, 14] of the same compound?
A: Its CR is 53.34 ± 7.72 µmol/L.
